Source: US8791107B2, “N-substituted oxazinopteridines and oxazinopteridinones” (Takeda Pharmaceutical Company Limited, priority 2011, dated 2014)

Target: T1, PI3Kδ (Homo sapiens, UniProt O00329)
T1 construct: The protein is full length and co-expressed with untagged PIK3R1; GST; purchased Invitrogen PV5274
Test: PI3Kδ inhibition, modified PIK3CD Adapta TR-FRET assay
Type: biochemical
Conditions: recombinant GST-tagged full length PIK3CD co-expressed with PIK3R1 (p85α); 2 μM ATP, 50 μM PIP2
Summary of the method: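 Inhibition was derived from % conversion against positive and negative controls, with ADP read by Adapta Eu-antibody/tracer TR-FRET. Room-temperature reactions used GST-PIK3CD/p85α in HEPES pH 7.5 buffer (MgCl2, EGTA, NaCl, CHAPS, fresh DTT), 1% DMSO final and 12 concentrations. They were initiated by adding 2 μM ATP/50 μM PIP2 solution.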

T1 sequence (O00329 whole entry): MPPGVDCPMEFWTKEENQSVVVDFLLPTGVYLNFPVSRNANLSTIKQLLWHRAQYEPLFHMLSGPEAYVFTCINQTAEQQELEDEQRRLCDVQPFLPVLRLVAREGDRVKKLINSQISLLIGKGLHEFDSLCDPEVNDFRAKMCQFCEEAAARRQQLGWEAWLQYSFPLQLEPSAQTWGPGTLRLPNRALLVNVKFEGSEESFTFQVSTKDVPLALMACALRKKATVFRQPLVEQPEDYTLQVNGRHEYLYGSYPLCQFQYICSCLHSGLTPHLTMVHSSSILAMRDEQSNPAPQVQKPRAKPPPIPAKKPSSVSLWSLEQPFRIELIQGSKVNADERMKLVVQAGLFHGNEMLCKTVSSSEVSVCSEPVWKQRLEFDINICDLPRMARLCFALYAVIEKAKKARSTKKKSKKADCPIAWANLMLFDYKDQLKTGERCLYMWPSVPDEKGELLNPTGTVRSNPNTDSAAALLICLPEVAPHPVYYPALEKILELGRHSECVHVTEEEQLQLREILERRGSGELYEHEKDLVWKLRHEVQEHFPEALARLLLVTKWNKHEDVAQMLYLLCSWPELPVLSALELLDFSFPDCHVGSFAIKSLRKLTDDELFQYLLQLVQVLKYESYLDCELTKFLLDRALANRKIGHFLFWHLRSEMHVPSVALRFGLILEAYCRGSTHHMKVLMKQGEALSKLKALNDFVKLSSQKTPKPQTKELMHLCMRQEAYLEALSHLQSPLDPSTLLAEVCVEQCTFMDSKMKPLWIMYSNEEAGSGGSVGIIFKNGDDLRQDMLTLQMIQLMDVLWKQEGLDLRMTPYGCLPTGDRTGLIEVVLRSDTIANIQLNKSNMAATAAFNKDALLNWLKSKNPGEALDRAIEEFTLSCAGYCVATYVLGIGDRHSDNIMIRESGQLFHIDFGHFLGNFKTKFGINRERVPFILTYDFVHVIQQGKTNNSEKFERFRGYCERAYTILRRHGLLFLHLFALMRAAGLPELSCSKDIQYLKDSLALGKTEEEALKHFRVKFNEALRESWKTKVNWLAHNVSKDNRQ
T1 sequence (P27986 whole entry partner): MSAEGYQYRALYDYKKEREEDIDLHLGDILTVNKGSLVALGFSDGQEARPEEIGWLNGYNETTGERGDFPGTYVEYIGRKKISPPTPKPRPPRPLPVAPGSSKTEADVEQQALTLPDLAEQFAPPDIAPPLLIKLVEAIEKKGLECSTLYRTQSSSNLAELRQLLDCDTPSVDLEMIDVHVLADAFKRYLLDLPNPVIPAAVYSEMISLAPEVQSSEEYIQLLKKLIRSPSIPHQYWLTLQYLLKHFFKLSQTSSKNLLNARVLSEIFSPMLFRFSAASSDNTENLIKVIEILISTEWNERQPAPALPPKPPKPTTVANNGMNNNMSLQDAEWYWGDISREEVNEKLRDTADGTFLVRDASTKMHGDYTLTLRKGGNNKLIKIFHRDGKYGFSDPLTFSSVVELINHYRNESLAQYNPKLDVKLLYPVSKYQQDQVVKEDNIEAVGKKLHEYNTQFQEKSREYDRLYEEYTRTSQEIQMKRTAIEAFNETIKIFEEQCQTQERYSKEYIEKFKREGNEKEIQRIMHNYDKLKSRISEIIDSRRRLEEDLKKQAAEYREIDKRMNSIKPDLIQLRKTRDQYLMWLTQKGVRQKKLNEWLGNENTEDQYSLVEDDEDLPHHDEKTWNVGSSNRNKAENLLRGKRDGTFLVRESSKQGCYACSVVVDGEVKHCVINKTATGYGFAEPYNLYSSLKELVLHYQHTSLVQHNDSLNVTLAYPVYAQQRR

With `CNC(=O)Nc1ccc(-c2ncc3c(n2)N2CCOC[C@@H]2C(=O)N3[C@@H](C)c2ccc(C)cc2)cc1` (single isomer, unassigned) [Example 87] the “PI3Kδ Inhibition (pIC50)” value was 7.1.

Same assay, conditions: recombinant GST-tagged full length PIK3CD co-expressed with PIK3R1 (p85α); 2 μM ATP, 50 μM PIP2; read-out: PI3Kδ Inhibition (pIC50) (converted)

Going from `COc1cc(C#N)ccc1CN1CC2COCCN2c2nc(-c3cccc4[nH]ccc34)ncc21` (centres unmarked) [Example 47, 4-((2-(1H-indol-4-yl)-6a,7,9,10-tetrahydro-[1,4]oxazino[3,4-h]pteridin-5(6H)-yl)methyl)-3-methoxybenzonitrile] to `N#Cc1ccc(F)c(CN2CC3COCCN3c3nc(-c4cccc5[nH]ccc45)ncc32)c1` (centres unmarked) [Example 60, 3-((2-(1H-indol-4-yl)-6a,7,9,10-tetrahydro-[1,4]oxazino[3,4-h]pteridin-5(6H)-yl)methyl)-4-fluorobenzonitrile], the IC50 falls from 0.158 µM to 0.0316 µM (5-fold).

`CCc1nnc(CN2CC3COCCN3c3nc(-c4cccc5[nH]ccc45)ncc32)o1` (centres unmarked) [Example 35, 5-((5-ethyl-1,3,4-oxadiazol-2-yl)methyl)-2-(1H-indol-4-yl)-5,6,6a,7,9,10-hexahydro-[1,4]oxazino[3,4-h]pteridine] and `CCc1nnc(CN2C[C@@H]3COCCN3c3nc(-c4cccc5[nH]ccc45)ncc32)o1` [Example 31, (R)-5-((5-ethyl-1,3,4-oxadiazol-2-yl)methyl)-2-(1H-indol-4-yl)-5,6,6a,7,9,10-hexahydro-[1,4]oxazino[3,4-h]pteridine] are within 1.5-fold of each other in IC50: 0.01 µM for the first, 0.00794 µM for the second.

Going from `CNC(=O)Nc1ccc(-c2ncc3c(n2)N2CCOCC2CN3Cc2ccccc2)cc1` (centres unmarked) [Example 61, 1-(4-(5-benzyl-5,6,6a,7,9,10-hexahydro-[1,4]oxazino[3,4-h]pteridin-2-yl)phenyl)-3-methylurea] to `CNC(=O)Nc1ccc(-c2ncc3c(n2)N2CCOCC2CN3Cc2ccc(Cl)cc2)cc1` (centres unmarked) [Example 63, 1-(4-(5-(4-chlorobenzyl)-5,6,6a,7,9,10-hexahydro-[1,4]oxazino[3,4-h]pteridin-2-yl)phenyl)-3-methylurea], the IC50 rises from 0.631 µM to 2.51 µM (4-fold).

`Cc1cccc(CN2CC3COCCN3c3nc(-c4cccc5[nH]ccc45)ncc32)n1` (centres unmarked) [Example 80] and `Cc1ccc(CO)c(CN2C[C@@H]3COCCN3c3nc(-c4cccc5[nH]ccc45)ncc32)c1` [Example 166, (R)-(2-((2-(1H-indol-4-yl)-6a,7,9,10-tetrahydro-[1,4]oxazino[3,4-h]pteridin-5(6H)-yl)methyl)-4-methylphenyl)methanol] are the same in IC50: 0.0631 µM for the first, 0.0631 µM for the second.

Compared with `COc1cc(C(N)=O)ccc1CN1CC2COCCN2c2nc(-c3cccc4[nH]ccc34)ncc21` (centres unmarked) [Example 79, 4-((2-(1H-indol-4-yl)-6a,7,9,10-tetrahydro-[1,4]oxazino[3,4-h]pteridin-5(6H)-yl)methyl)-3-methoxybenzamide], `Cn1cc(CN2C[C@@H]3COCCN3c3nc(-c4cccc5[nH]ccc45)ncc32)cn1` [Example 182, (R)-2-(1H-indol-4-yl)-5-((1-methyl-1H-pyrazol-4-yl)methyl)-5,6,6a,7,9,10-hexahydro-[1,4]oxazino[3,4-h]pteridine] is 3.2-fold lower in IC50: 0.0501 µM for the first, 0.0158 µM for the second.

`CNC(=O)Nc1ccc(-c2ncc3c(n2)N2CCOCC2C(=O)N3Cc2cccc(-n3cccc3)c2)cc1` (centres unmarked) [Example 90, 1-(4-(5-(3-(1H-pyrrol-1-yl)benzyl)-6-oxo-5,6,6a,7,9,10-hexahydro-[1,4]oxazino[3,4-h]pteridin-2-yl)phenyl)-3-methylurea] and `CNC(=O)Nc1ccc(-c2ncc3c(n2)N2CCOCC2C(=O)N3Cc2ccc(C(=O)OC)cc2)cc1` (centres unmarked) [Example 88, methyl 4-((2-(4-(3-methylureido)phenyl)-6-oxo-6a,7,9,10-tetrahydro-[1,4]oxazino[3,4-h]pteridin-5(6H)-yl)methyl)benzoate] are within 1.5-fold of each other in IC50: 0.00501 µM for the first, 0.00631 µM for the second.

Going from `CNC(=O)Nc1ccc(-c2ncc3c(n2)N2CCOCC2CN3Cc2ccc(S(C)(=O)=O)cc2Cl)cc1` (centres unmarked) [Example 6, 1-(4-(5-(2-chloro-4-(methylsulfonyl)benzyl)-5,6,6a,7,9,10-hexahydro-[1,4]oxazino[3,4-h]pteridin-2-yl)phenyl)-3-methylurea] to `CS(=O)(=O)c1ccc(CN2C[C@@H]3COCCN3c3nc(-c4cncc5[nH]ccc45)ncc32)cc1` [Example 30, (R)-5-(4-(methylsulfonyl)benzyl)-2-(1H-pyrrolo[2,3-c]pyridin-4-yl)-5,6,6a,7,9,10-hexahydro-[1,4]oxazino[3,4-h]pteridine], the IC50 falls from 0.01 µM to 0.00126 µM (7.9-fold).

`CC(C)Cc1nnc(C(C)N2C[C@@H]3COCCN3c3nc(-c4cccc(CO)c4)ncc32)o1` (some centres unmarked) [Example 176] and `CCc1nnc(C(C)N2C[C@@H]3COCCN3c3nc(-c4cccc(CO)c4)ncc32)o1` (stereo partly drawn) [Example 177, (3-((6aR)-5-(1-(5-ethyl-1,3,4-oxadiazol-2-yl)ethyl)-5,6,6a,7,9,10-hexahydro-[1,4]oxazino[3,4-h]pteridin-2-yl)phenyl)methanol] are within 1.5-fold of each other in IC50: 0.00158 µM for the first, 0.002 µM for the second.

Going from `c1cc(-c2ncc3c(n2)N2CCOCC2CN3)c2cc[nH]c2c1` (centres unmarked) [Example 2, 2-(1H-indol-4-yl)-5,6,6a,7,9,10-hexahydro-[1,4]oxazino[3,4-h]pteridine] to `N[C@H]1CC[C@H](CN2CC3COCCN3c3nc(-c4cccc5[nH]ccc45)ncc32)CC1` (some centres unmarked) [Example 58, (1r,4r)-4-((2-(1H-indol-4-yl)-6a,7,9,10-tetrahydro-[1,4]oxazino[3,4-h]pteridin-5(6H)-yl)methyl)cyclohexanamine], the IC50 rises from 0.0501 µM to 0.501 µM (10-fold).

`c1cc(-c2ncc3c(n2)N2CCOCC2CN3Cc2nnc(C3CC3)o2)c2cc[nH]c2c1` (centres unmarked) [Example 81, 5-((5-cyclopropyl-1,3,4-oxadiazol-2-yl)methyl)-2-(1H-indol-4-yl)-5,6,6a,7,9,10-hexahydro-[1,4]oxazino[3,4-h]pteridine] and `c1ccc(-c2nnc(CN3CC4COCCN4c4nc(-c5cccc6[nH]ccc56)ncc43)o2)cc1` (centres unmarked) [Example 38, 2-(1H-indol-4-yl)-5-((5-phenyl-1,3,4-oxadiazol-2-yl)methyl)-5,6,6a,7,9,10-hexahydro-[1,4]oxazino[3,4-h]pteridine] are within 1.5-fold of each other in IC50: 0.0158 µM for the first, 0.0126 µM for the second.

`COCc1cccc(-c2ncc3c(n2)N2CCOC[C@H]2CN3CC(=O)NCC2CCOCC2)c1` [Example 216, (R)-2-(2-(3-(methoxymethyl)phenyl)-6a,7,9,10-tetrahydro-[1,4]oxazino[3,4-h]pteridin-5(6H)-yl)-N-((tetrahydro-2H-pyran-4-yl)methyl)acetamide] and `O=C(CN1C[C@@H]2COCCN2c2nc(-c3cccc(OC(F)F)c3)ncc21)NCC1CCOCC1` [Example 217, (R)-2-(2-(3-(difluoromethoxy)phenyl)-6a,7,9,10-tetrahydro-[1,4]oxazino[3,4-h]pteridin-5(6H)-yl)-N-((tetrahydro-2H-pyran-4-yl)methyl)acetamide] are within 1.5-fold of each other in IC50: 1 µM for the first, 0.794 µM for the second.

Going from `C[C@@H](c1ccccc1)N1C(=O)C2COCCN2c2nc(-c3cc[nH]n3)ncc21` (mixture of isomers) [Example 97, 5-((5)-1-phenylethyl)-2-(1H-pyrazol-3-yl)-6a,7,9,10-tetrahydro-[1,4]oxazino[3,4-h]pteridin-6(5H)-one] to `O=C(CN1C[C@@H]2COCCN2c2nc(-c3cccc4[nH]ccc34)ncc21)NCc1cc[nH]n1` [Example 72, (R)-2-(2-(1H-indol-4-yl)-6a,7,9,10-tetrahydro-[1,4]oxazino[3,4-h]pteridin-5(6H)-yl)-N-((1H-pyrazol-3-yl)methyl)acetamide], the IC50 falls from 1 µM to 0.126 µM (7.9-fold).

First: CS(=O)(=O)c1ccc(CN2C(=O)C3COCCN3c3nc(-c4cccc5[nH]cnc45)ncc32)cc1 (centres unmarked) [Example 139, 2-(1H-benzo[d]imidazol-4-yl)-5-(4-(methylsulfonyl)benzyl)-6a,7,9,10-tetrahydro-[1,4]oxazino[3,4-h]pteridin-6(5H)-one]
Second: CS(=O)(=O)c1ccc(CN2C(=O)C3COCCN3c3nc(-c4c[nH]c5c(Cl)cccc45)ncc32)cc1 (centres unmarked) [Example 134, 2-(7-chloro-1H-indol-3-yl)-5-(4-(methylsulfonyl)benzyl)-6a,7,9,10-tetrahydro-[1,4]oxazino[3,4-h]pteridin-6(5H)-one]
The IC50 of the first is lower: 0.0794 µM for the first, > 0.1 µM for the second.

First: CN(CC1CCOCC1)C(=O)CN1C[C@@H]2COCCN2c2nc(-c3cccc4[nH]ccc34)ncc21 [Example 212, (R)-2-(2-(1H-indol-4-yl)-6a,7,9,10-tetrahydro-[1,4]oxazino[3,4-h]pteridin-5(6H)-yl)-N-methyl-N-((tetrahydro-2H-pyran-4-yl)methyl)acetamide]
Second: Cc1nc(-c2cccc3[nH]ccc23)nc2c1N(Cc1ccc(S(C)(=O)=O)cc1)CC1COCCN21 (centres unmarked) [Example 26, 2-(1H-indol-4-yl)-4-methyl-5-(4-(methylsulfonyl)benzyl)-5,6,6a,7,9,10-hexahydro-[1,4]oxazino[3,4-h]pteridine]
The IC50 of the first is 6.3-fold lower: 0.0398 µM for the first, 0.251 µM for the second.

Compared with `COc1cccc2c(-c3ncc4c(n3)N3CCOCC3C(=O)N4Cc3ccc(S(C)(=O)=O)cc3)c[nH]c12` (centres unmarked) [Example 138, 2-(7-methoxy-1H-indol-3-yl)-5-(4-(methylsulfonyl)benzyl)-6a,7,9,10-tetrahydro-[1,4]oxazino[3,4-h]pteridin-6(5H)-one], `CS(=O)(=O)Nc1ccc(-c2ncc3c(n2)N2CCOCC2C(=O)N3Cc2ccc(S(C)(=O)=O)cc2)cc1` (centres unmarked) [Example 102, N-(4-(5-(4-(methylsulfonyl)benzyl)-6-oxo-5,6,6a,7,9,10-hexahydro-[1,4]oxazino[3,4-h]pteridin-2-yl)phenyl)methanesulfonamide] is 16-fold lower in IC50: 3.16 µM for the first, 0.2 µM for the second.

Molecule `Cc1c[nH]c2c(F)ccc(-c3ncc4c(n3)N3CCOCC3CN4Cc3ccc(S(C)(=O)=O)cc3)c12` (centres unmarked) [Example 16, 2-(7-fluoro-3-methyl-1H-indol-4-yl)-5-(4-(methylsulfonyl)benzyl)-5,6,6a,7,9,10-hexahydro-[1,4]oxazino[3,4-h]pteridine] has an IC50 of 6.31 µM.
